Source: the supplement of paper PMC9663587

Key:
Cabozantinib = compound: COc1cc2nccc(Oc3ccc(NC(=O)C4(C(=O)Nc5ccc(F)cc5)CC4)cc3)c2cc1OC [Cabozantinib]
BSJ-03-123 = compound: CC(=O)c1c(C)c2cnc(Nc3ccc(N4CCN(CCOCCOCCOCCNC(=O)COc5cccc6c5C(=O)N(C5CCC(=O)NC5=O)C6=O)CC4)cn3)nc2n(C2CCCC2)c1=O [BSJ-03-123]
[1] = compound: CCc1cnn2c(NCc3ccc[n+]([O-])c3)cc(N3CCCC[C@H]3CCO)nc12
Vorinostat = compound: O=C(CCCCCCC(=O)Nc1ccccc1)NO [Vorinostat]
Buparlisib/NVP-BKM120 = compound: Nc1cc(C(F)(F)F)c(-c2cc(N3CCOCC3)nc(N3CCOCC3)n2)cn1 [Buparlisib/NVP-BKM120]
Paclitaxel = compound: CC(=O)O[C@H]1C(=O)[C@@]2(C)[C@H]([C@H](OC(=O)c3ccccc3)[C@]3(O)C[C@H](OC(=O)[C@H](O)[C@@H](NC(=O)c4ccccc4)c4ccccc4)C(C)=C1C3(C)C)[C@]1(OC(C)=O)CO[C@@H]1C[C@@H]2O [Paclitaxel]
SHP099 = compound: CC1(CCN(CC1)C2=CN=C(C(=N2)N)C3=C(C(=CC=C3)Cl)Cl)N [SHP099]
AZD5363 = compound: NC1(C(=O)N[C@@H](CCO)c2ccc(Cl)cc2)CCN(c2nc[nH]c3nccc2-3)CC1 [AZD5363]
[2] = compound: CCN1CCN(Cc2ccc(Nc3ncc(F)c(-c4cc(F)c5nc(C)n(C(C)C)c5c4)n3)nc2)CC1
[3] = compound: CCc1cnn2c(NCc3ccc[n+]([O-])c3)cc(N3CCCC[C@H]3CCO)nc12; assay: GR value, 72 h; higher = faster growth (1 = untreated, <0 = killing);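 also: breast cancer and non-malignant breast epithelial lines, nine half-log doses, viable cells counted by Hoechst and LIVE/DEAD dye imaging versus time-zero plates and DMSO controls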
LEE011/Ribociclib = compound: CN(C)C(=O)c1cc2cnc(Nc3ccc(N4CCNCC4)cn3)nc2n1C1CCCC1 [LEE011/Ribociclib]; assay: as above
THZ1 = compound: CN(C)C/C=C/C(=O)Nc1ccc(C(=O)Nc2cccc(Nc3ncc(Cl)c(-c4c[nH]c5ccccc45)n3)c2)cc1 [THZ1]; assay: as above
THZ531 = compound: CN(C)C/C=C/C(=O)Nc1ccc(C(=O)N2CCC[C@@H](Nc3ncc(Cl)c(-c4c[nH]c5ccccc45)n3)C2)cc1 [THZ531]; assay: as above
Flavopiridol = compound: CN1CC[C@H](c2c(O)cc(O)c3c(=O)cc(-c4ccccc4Cl)oc23)[C@H](O)C1 [Flavopiridol]; assay: as above
[4] = compound: CC(=O)c1c(C)c2cnc(Nc3ccc(N4CCNCC4)cn3)nc2n(C2CCCC2)c1=O; assay: as above
[5] = compound: CCN1CCN(Cc2ccc(Nc3ncc(F)c(-c4cc(F)c5nc(C)n(C(C)C)c5c4)n3)nc2)CC1; assay: as above
YKL-5-124 = compound: C=CC(=O)Nc1ccc(C(=O)Nc2[nH]nc3c2CN(C(=O)N[C@H](CN(C)C)c2ccccc2)C3(C)C)cc1 [YKL-5-124]; assay: as above
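For GR50, 72 h in this document: breast cancer and non-malignant breast epithelial cell lines, Deep Dye Drop or Dye Drop imaging, nine half-log doses, GR normalized to time-zero plates and DMSO-only controls.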

MDAMB175VII
GR50, 72 h (Cabozantinib): 7.74 µM | GR50, 72 h (BSJ-03-123): 0.301 µM | GR50, 72 h [1]: 0.0118 µM | GR50, 72 h (Vorinostat): 0.546 µM | GR50, 72 h (Buparlisib/NVP-BKM120): 0.102 µM | GR50, 72 h (Paclitaxel): 0.00295 µM | GR50, 72 h (SHP099): 2.47 µM | GR50, 72 h (AZD5363): 0.0495 µM | GR50, 72 h [2]: 0.00292 µM | GR value ([3]; 0.0001 µM): 1.09 GR | GR value ([3]; 0.0003162 µM): 1.07 GR | GR value ([3]; 0.001 µM): 1.14 GR | GR value ([3]; 0.003162 µM): 1.23 GR | GR value ([3]; 0.01 µM): 0.742 GR | GR value ([3]; 0.03162 µM): -0.651 GR | GR value ([3]; 0.1 µM): -0.516 GR | GR value ([3]; 0.3162 µM): -0.49 GR | GR value ([3]; 1 µM): -0.497 GR | GR value (LEE011/Ribociclib; 0.001 µM): 0.4 GR | GR value (LEE011/Ribociclib; 0.003162 µM): 0.267 GR | GR value (LEE011/Ribociclib; 0.01 µM): 0.288 GR | GR value (LEE011/Ribociclib; 0.03162 µM): 0.15 GR | GR value (LEE011/Ribociclib; 0.1 µM): 0.195 GR | GR value (LEE011/Ribociclib; 0.3162 µM): 0.0606 GR | GR value (LEE011/Ribociclib; 1 µM): 0.0351 GR | GR value (LEE011/Ribociclib; 3.162 µM): 0.19 GR | GR value (LEE011/Ribociclib; 10 µM): 0.192 GR | GR value (THZ1; 0.0001 µM): 0.829 GR | GR value (THZ1; 0.0003162 µM): 1.05 GR | GR value (THZ1; 0.001 µM): 1.01 GR | GR value (THZ1; 0.003162 µM): 0.843 GR | GR value (THZ1; 0.01 µM): 0.736 GR | GR value (THZ1; 0.03162 µM): 0.515 GR | GR value (THZ1; 0.1 µM): -0.0075 GR | GR value (THZ1; 0.3162 µM): -0.159 GR | GR value (THZ1; 1 µM): -0.44 GR | GR value (THZ531; 0.0001 µM): 0.885 GR | GR value (THZ531; 0.0003162 µM): 0.884 GR | GR value (THZ531; 0.001 µM): 0.841 GR | GR value (THZ531; 0.003162 µM): 0.919 GR | GR value (THZ531; 0.01 µM): 1 GR | GR value (THZ531; 0.03162 µM): 0.677 GR | GR value (THZ531; 0.1 µM): -0.409 GR | GR value (THZ531; 0.3162 µM): -0.673 GR | GR value (THZ531; 1 µM): -0.403 GR | GR value (Flavopiridol; 0.0001 µM): 0.962 GR | GR value (Flavopiridol; 0.0003162 µM): 1 GR | GR value (Flavopiridol; 0.001 µM): 0.765 GR | GR value (Flavopiridol; 0.003162 µM): 0.721 GR | GR value (Flavopiridol; 0.01 µM): 0.675 GR | GR value (Flavopiridol; 0.03162 µM): 0.748 GR | GR value (Flavopiridol; 0.1 µM): 0.442 GR | GR value (Flavopiridol; 0.3162 µM): -0.175 GR | GR value (Flavopiridol; 1 µM): -0.302 GR | GR value ([4]; 0.0003162 µM): 0.695 GR | GR value ([4]; 0.001 µM): 0.582 GR | GR value ([4]; 0.003162 µM): 0.689 GR | GR value ([4]; 0.01 µM): 0.453 GR | GR value ([4]; 0.03162 µM): 0.156 GR | GR value ([4]; 0.1 µM): -0.0684 GR | GR value ([4]; 0.3162 µM): -0.0381 GR | GR value ([4]; 1 µM): -0.0455 GR | GR value ([4]; 3.162 µM): -0.158 GR | GR value ([5]; 0.001 µM): 0.725 GR | GR value ([5]; 0.003162 µM): 0.505 GR | GR value ([5]; 0.01 µM): 0.0712 GR | GR value ([5]; 0.03162 µM): 0.105 GR | GR value ([5]; 0.1 µM): 0.0173 GR | GR value ([5]; 0.3162 µM): 0.0287 GR | GR value ([5]; 1 µM): -0.0111 GR | GR value ([5]; 3.162 µM): -0.0725 GR | GR value ([5]; 10 µM): -0.173 GR | GR value (YKL-5-124; 0.001 µM): 0.0803 GR | GR value (YKL-5-124; 0.003162 µM): 0.0736 GR | GR value (YKL-5-124; 0.01 µM): 0.0488 GR | GR value (YKL-5-124; 0.03162 µM): 0.076 GR | GR value (YKL-5-124; 0.1 µM): 0.0075 GR | GR value (YKL-5-124; 0.3162 µM): 0.118 GR | GR value (YKL-5-124; 1 µM): -0.0042 GR | GR value (YKL-5-124; 3.162 µM): 0.0879 GR | GR value (YKL-5-124; 10 µM): -0.754 GR

MDAMB231
GR50, 72 h (Cabozantinib): 4.83 µM | GR50, 72 h (BSJ-03-123): 0.731 µM | GR50, 72 h [1]: 0.0103 µM | GR50, 72 h (Vorinostat): 1.24 µM | GR50, 72 h (Buparlisib/NVP-BKM120): 1.51 µM | GR50, 72 h (Paclitaxel): 0.00232 µM | GR50, 72 h (SHP099): > 10 µM | GR50, 72 h (AZD5363): > 10 µM | GR50, 72 h [2]: 0.0468 µM | GR value ([3]; 0.0001 µM): 0.921 GR | GR value ([3]; 0.0003162 µM): 0.995 GR | GR value ([3]; 0.001 µM): 0.966 GR | GR value ([3]; 0.003162 µM): 0.93 GR | GR value ([3]; 0.01 µM): 0.51 GR | GR value ([3]; 0.03162 µM): -0.288 GR | GR value ([3]; 0.1 µM): -0.361 GR | GR value ([3]; 0.3162 µM): -0.372 GR | GR value ([3]; 1 µM): -0.426 GR | GR value (LEE011/Ribociclib; 0.001 µM): 0.792 GR | GR value (LEE011/Ribociclib; 0.003162 µM): 0.835 GR | GR value (LEE011/Ribociclib; 0.01 µM): 0.747 GR | GR value (LEE011/Ribociclib; 0.03162 µM): 0.762 GR | GR value (LEE011/Ribociclib; 0.1 µM): 0.673 GR | GR value (LEE011/Ribociclib; 0.3162 µM): 0.617 GR | GR value (LEE011/Ribociclib; 1 µM): 0.569 GR | GR value (LEE011/Ribociclib; 3.162 µM): 0.466 GR | GR value (LEE011/Ribociclib; 10 µM): 0.215 GR | GR value (THZ1; 0.0001 µM): 1.02 GR | GR value (THZ1; 0.0003162 µM): 0.992 GR | GR value (THZ1; 0.001 µM): 0.993 GR | GR value (THZ1; 0.003162 µM): 1.03 GR | GR value (THZ1; 0.01 µM): 0.972 GR | GR value (THZ1; 0.03162 µM): 0.701 GR | GR value (THZ1; 0.1 µM): 0.26 GR | GR value (THZ1; 0.3162 µM): -0.0565 GR | GR value (THZ1; 1 µM): -0.5 GR | GR value (THZ531; 0.0001 µM): 1.03 GR | GR value (THZ531; 0.0003162 µM): 0.974 GR | GR value (THZ531; 0.001 µM): 0.936 GR | GR value (THZ531; 0.003162 µM): 1.02 GR | GR value (THZ531; 0.01 µM): 0.939 GR | GR value (THZ531; 0.03162 µM): 0.975 GR | GR value (THZ531; 0.1 µM): 0.751 GR | GR value (THZ531; 0.3162 µM): 0.443 GR | GR value (THZ531; 1 µM): -0.275 GR | GR value (Flavopiridol; 0.0001 µM): 1.02 GR | GR value (Flavopiridol; 0.0003162 µM): 1.03 GR | GR value (Flavopiridol; 0.001 µM): 1 GR | GR value (Flavopiridol; 0.003162 µM): 0.886 GR | GR value (Flavopiridol; 0.01 µM): 0.858 GR | GR value (Flavopiridol; 0.03162 µM): 0.866 GR | GR value (Flavopiridol; 0.1 µM): 0.656 GR | GR value (Flavopiridol; 0.3162 µM): 0.152 GR | GR value (Flavopiridol; 1 µM): -0.434 GR | GR value ([4]; 0.0003162 µM): 1.08 GR | GR value ([4]; 0.001 µM): 1.02 GR | GR value ([4]; 0.003162 µM): 0.921 GR | GR value ([4]; 0.01 µM): 0.824 GR | GR value ([4]; 0.03162 µM): 0.637 GR | GR value ([4]; 0.1 µM): 0.494 GR | GR value ([4]; 0.3162 µM): 0.418 GR | GR value ([4]; 1 µM): 0.288 GR | GR value ([4]; 3.162 µM): 0.202 GR | GR value ([5]; 0.001 µM): 0.942 GR | GR value ([5]; 0.003162 µM): 0.859 GR | GR value ([5]; 0.01 µM): 0.699 GR | GR value ([5]; 0.03162 µM): 0.513 GR | GR value ([5]; 0.1 µM): 0.289 GR | GR value ([5]; 0.3162 µM): 0.169 GR | GR value ([5]; 1 µM): 0.0774 GR | GR value ([5]; 3.162 µM): -0.187 GR | GR value ([5]; 10 µM): -0.492 GR | GR value (YKL-5-124; 0.001 µM): 0.388 GR | GR value (YKL-5-124; 0.003162 µM): 0.284 GR | GR value (YKL-5-124; 0.01 µM): 0.2 GR | GR value (YKL-5-124; 0.03162 µM): 0.144 GR | GR value (YKL-5-124; 0.1 µM): 0.101 GR | GR value (YKL-5-124; 0.3162 µM): 0.0485 GR | GR value (YKL-5-124; 1 µM): 0.0611 GR | GR value (YKL-5-124; 3.162 µM): 0.0322 GR | GR value (YKL-5-124; 10 µM): -0.182 GR
